Measurements published in PubChem BioAssay AID743402 (Broad Institute, 2014).

Test system: FRT CFTR-F508del YFP iodide quenching, 24 h
Assay: CFTR-F508del correctors, dose response, FRT cells, YFP quenching, cherry-pick (AID 743402);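 further: compounds act as correctors raising surface CFTR-F508del before acute activation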
[1] = channel opened with forskolin and a potentiator

| SMILES | AC35 [1] [µM] | AC35 [µM] |
| --- | --- | --- |
| CN(C)CCNC(=O)c1ccc(Cl)c2cc3ccccc3nc12 | 9.45 |  |
| COc1cc(OC)cc(C(=O)N[C@H](C(=O)Nc2nc3ccccc3[nH]2)C(C)C)c1 | 9.27 |  |
| CCCCN1C(=O)/C(=C/C=C2\Oc3ccccc3N2CC)SC1=S | 1.64 |  |
| CN(C)CCCNc1c2ccccc2nc2ccccc12 | 3.57 |  |
| Nc1ccc2c3c(cccc13)C(=O)N(c1ccccc1)C2=O | 1.93 |  |
| CC(C)(C)c1ccc(OCC(=O)Nc2ccc3c4c(cccc24)C(=O)NC3=O)cc1 | 6.68 |  |
| CCN1/C(=C/c2ccc3cc(C)cc(C)c3[n+]2CC)Sc2cc(C)ccc21 | 1.05 |  |
| CO[C@@]12[C@@H]3N[C@@H]3CN1C1=C(C(=O)C(N)=C(C)C1=O)[C@@H]2COC(N)=O | 19.4 |  |
| N#CC(C#N)=C1C=C2C=C(N3CCOCC3)CCC2CC1 (centres undefined) | 0.14 |  |
| COc1ccc([C@H]2CC(=O)C=C(c3ccc(OC)cc3OC)C2)cc1 | 25 |  |
| COc1cccc(S(=O)(=O)N2C[C@@H]3N[C@H](C2)C3c2ccc(-c3cccc(C)c3)cc2)c1 (some centres undefined) | 21 |  |
| CN1C(=O)c2cccc3c(N)ccc(c23)C1=O | 2.62 |  |
| C#C[C@]1(O)CC[C@H]2[C@@H]3CCc4cc(OC5CCCC5)ccc4[C@H]3CC[C@@]21C | 25.1 |  |
| COc1cccc2c1C(=O)c1c(O)c3c(c(O)c1C2=O)C[C@@](O)(C(C)=O)C[C@@H]3O[C@H]1C[C@H](N)[C@H](O)[C@H](C)O1 | 0.856 |  |
| CCC1=C(CC2NCCc3ccccc32)CC2c3cc(OC)c(OC)cc3CCN2C1 (centres undefined) | 15.4 |  |
| C=C1C(=O)O[C@@H]2C[C@@H](C)[C@@H]3C=CC(=O)[C@@]3(C)[C@@H](O)[C@H]12 |  | 5.32 |
| OC[C@@H]1[C@@H](c2ccccc2)C2(CN(Cc3ccccc3F)C2)N1Cc1ccccc1F | 23.1 |  |
| C[n+]1c2cc(N)ccc2cc2ccc(N)cc21 | 0.51 | 0.19 |
| C[C@H]1CN([C@@H](C)CO)S(=O)(=O)c2ccc(C#Cc3ccc(F)cc3)cc2O[C@H]1CN(C)C(=O)NC1CCCCC1 | 22.6 |  |
| CN1C(=CC=C2C=C(I)C(=O)C(I)=C2)C(C)(C)c2ccccc21 | 5.68 |  |
| N#Cc1ccc(-c2ccc3c(c2)[C@H]2[C@H](CCN2S(=O)(=O)c2ccccc2F)[C@@H](CO)N3)cc1 | 21.3 |  |
| CCCC(=O)NC1=C(Cl)C(=O)c2ccccc2C1=O | 7.72 |  |
| O=[N+]([O-])c1ccc(N2CCOCC2)c2c1no[n+]2[O-] |  | 10.4 |
| O=c1ccc2[n+]([O-])c3ccc(O)cc3oc-2c1 | 10.9 |  |
| CCN1C(=O)c2cccc3c(N)ccc(c23)C1=O | 2.83 |  |

| SMILES | AC35 [1] [µM] | AC35 [µM] |
| --- | --- | --- |
| CN1/C(=C\C=C2/SC(=S)N(CC(=O)O)C2=O)C(C)(C)c2ccccc21 | 1.37 |  |
| C=C1SC(Nc2c(C)cc(C)cc2C)=NC12CCCCC2 | 3.59 |  |
| CN(C)CCNc1ccc2ncn3c4ccc(O)cc4c(=O)c1c23 | 8.57 |  |
| C=CCCC(=O)Nc1nc(C)c(-c2csc(Nc3cc(OC)ccc3OC)n2)s1 | 4.51 |  |
| COc1ccc(S(=O)(=O)N2CC[C@@H]3[C@H](CO)N(C)c4ccc(-c5ccc(F)cc5)cc4[C@@H]32)cc1 | 15.3 |  |
| N#C/C(=C\c1ccccn1)c1nc2ccccc2s1 | 3.38 |  |
| C[C@@H]1CN([C@@H](C)CO)C(=O)Cc2cc(NC(=O)Nc3cccc4ccccc34)ccc2O[C@@H]1CN(C)Cc1ccc(Cl)c(Cl)c1 | 22.4 |  |
| COC(=O)Cn1c(=NC(=O)c2cc(-c3cccs3)nc3ccccc23)sc2cc(S(N)(=O)=O)ccc21 | 9.92 |  |
| CC(C)Nc1nc(Nc2ccc(Cl)cc2F)c2sccc2n1 | 12.7 |  |
| COc1cccc(Nc2nc(-c3sc(NC(=O)c4ccccc4)nc3C)cs2)c1 | 4.43 |  |
| O=C(O)c1ccccc1-c1c2cc(I)c(=O)c(I)c-2oc2c(I)c(O)c(I)cc12 | 1.74 |  |
| COc1cccc(-c2ccc(C3[C@@H]4CN(S(=O)(=O)c5cccc(OC)c5)C[C@H]3N4)cc2)c1 (some centres undefined) | 16 |  |
| COC1C(C)OC(OC2CC(C)(O)Cc3cc4c(c(O)c32)C(=O)c2c(O)cc3c(c2C4=O)OC2OC3(C)C(O)C(N(C)C)C2O)C(OC)C1(C)OC (centres undefined) |  | 2.39 |
| O=C(Nc1cccc(F)c1)N1CCCCN2[C@@H](CO)[C@H](c3ccc(C#CC4CC4)cc3)[C@@H]2C1 | 20.8 |  |
| O=[N+]([O-])c1ccc(/C=C/C2=NN(c3ccccc3)C(c3ccco3)C2)o1 (centres undefined) | 2.93 |  |
| CCN(CC)C1=CC2=CC(=C(C#N)C#N)CCC2CC1 (centres undefined) | 0.0855 |  |
| O=C1c2cccc3c(O)ccc(c23)C(=O)N1Cc1ccco1 | 2.65 |  |
| O=C1c2cccc3c(N4CCCCC4)ccc(c23)C(=O)N1c1cccc(O)c1 | 4.44 |  |
| COc1ccc2noc3c2c1C(=O)c1ccccc1-3 | 5.51 |  |
| CC(=O)Nc1ccc2cc3ccc(NC(C)=O)cc3nc2c1 | 3.98 |  |
| COc1ccc(C(=O)NCCN(C)C)c2nc3ccccc3cc12 | 25.7 |  |
| CCCOc1cc(N(CC)CC)ccc1/C=C(/C#N)c1nc2ccc(C)cc2[nH]1 | 0.505 |  |
| COc1ccc(/C=N/NC(=O)c2cccnc2)cc1CSc1ccccn1 | 8.21 |  |
| COC(=O)c1ccccc1-c1c2ccc(=N)cc-2oc2cc(N)ccc12 | 0.0334 |  |
| COc1cccc2c1C(=O)c1c(O)c3c(c(O)c1C2=O)CC(O)(C(=O)CO)CC3OC1CC(N(C)C)C(O)C(C)O1 (centres undefined) | 1.37 |  |

| SMILES | AC35 [1] [µM] | AC35 [µM] |
| --- | --- | --- |
| CC1(S(=O)(=O)O)CC(=O)c2ccccc2C1=O (centres undefined) | 6 |  |
| COc1ccccc1Nc1nc(-c2sc(NC(=O)C(C)(C)C)nc2C)cs1 | 3.51 |  |
| Cc1cc2[nH]c3c(c[n+](C)c4ccccc34)c2cc1C | 13.4 |  |
| C=CCN1C(=O)/C(=C/C=C2/N(CC)c3ccc(S(=O)(=O)N(C)C)cc3N2CC)SC1=S | 1.3 |  |
| CCC1(C)OC(c2ccccc2)=C/C(=C/C=C2C(=O)NC(=O)NC2=O)O1 (centres undefined) |  | 11.7 |
| Cc1ccc(N2C(=O)c3cccc4c([N+](=O)[O-])ccc(c34)C2=O)c2cccnc12 | 4.81 |  |
| CC1=C/C(=C\C=C(C#N)C#N)N(C)c2ccccc21 | 5.2 |  |
| O=C(C1CCCC1)N1CC(=O)N2[C@H](CO)[C@@H](c3ccc(-c4ccccc4F)cc3)[C@@H]2C1 | 22.2 |  |
| C[C@@H]1CCCCO[C@H](CN(C)Cc2ccc(Cl)c(Cl)c2)[C@@H](C)CN([C@@H](C)CO)C(=O)c2cc(NS(=O)(=O)c3ccc(Cl)cc3)ccc2O1 | 23.5 |  |
| O=[N+]([O-])c1ccc(Sc2cccc[n+]2[O-])c2nonc12 | 4.93 |  |
| CCN(CC)c1ccc(/C=C(/C#N)c2nc3ccc(C)cc3[nH]2)c(OC(C)C)c1 | 0.796 |  |
| O=C(Nc1cccc(F)c1)N1CCCCN2[C@@H](CO)[C@H](c3ccc(C#Cc4ccccc4)cc3)[C@@H]2C1 | 19.7 |  |
| CC1=NCCc2c1[nH]c1cc(O)ccc21 |  | 13.4 |
| CNc1ccc2c3c(cccc13)C(=O)N(C)C2=O | 0.651 |  |
| NS(=O)(=O)c1ccc(NC(=O)c2cccc3cc4ccccc4nc23)cc1 | 20.9 |  |
| COc1cc(/C=C2\SC(=Nc3ccc(Cl)c(C(=O)O)c3)NC2=O)c(Br)c(Br)c1O | 2.19 |  |
| CCOc1ccc(C)cc1S(=O)(=O)n1cnc2ccccc21 | 15.9 |  |
| CCOC(=O)C1CCCN(c2ccc([N+](=O)[O-])c3nonc23)C1 (centres undefined) | 5.34 |  |
| O=C(Cc1ccccc1)N1CC(=O)N2[C@H](C1)[C@@H](c1ccc(C#Cc3ccccc3)cc1)[C@@H]2CO | 21.3 |  |
| O=C1/C(=C\c2cc(Cl)c(O)c(Cl)c2)SC(=S)N1Cc1ccccc1 | 0.214 |  |
| N#CC(C#N)=C1C=C2C=C(N3CCCCCC3)CCC2CC1 (centres undefined) | 0.0871 |  |
| O=C1c2cccc(NCCCNCCO)c2C(=O)c2cccc(NCCCNCCO)c21 | 5.19 |  |
| COc1cc(OC)c(-c2c3cc(O)c(=O)cc-3oc3cc(O)c(O)cc23)cc1OC | 4.15 |  |
